Assays:
Type in all cases: ADME
[1] = (§1) The drug is tested on Bifidobacterium longum strain: DSM20088 for biotransformation under anaerobic condition. The drug concentrations were measured over 6 timepoints collected between 0 and 12 hours of incubation by liquid-chromatography-coupled mass spectrometry (LC–MS); set-up: dose 5 uM, timepoint 0, 1.5, 3, 6, 9, 12 hours; details: 5 µM
[2] = The drug is tested on Collinsella aerofaciens strain: DSM3979 for biotransformation under anaerobic condition. The drug concentrations were measured over 6 timepoints collected between 0 and 12 hours of incubation by liquid-chromatography-coupled mass spectrometry (LC–MS); set-up: dose 5 uM, timepoint 0, 1.5, 3, 6, 9, 12 hours; details: 5 µM
[3] = The drug is tested on Bacteroides caccae strain: DSM19024 for biotransformation under anaerobic condition. The drug concentrations were measured over 6 timepoints collected between 0 and 12 hours of incubation by liquid-chromatography-coupled mass spectrometry (LC–MS); set-up: dose 5 uM, timepoint 0, 1.5, 3, 6, 9, 12 hours; details: 5 µM
[4] = The drug is tested on Bacteroides fragilis strain: DSM2151 for biotransformation under anaerobic condition. The drug concentrations were measured over 6 timepoints collected between 0 and 12 hours of incubation by liquid-chromatography-coupled mass spectrometry (LC–MS); set-up: dose 5 uM, timepoint 0, 1.5, 3, 6, 9, 12 hours; details: 5 µM
[5] = The drug is tested on Bacteroides uniformis strain: DSM6597 for biotransformation under anaerobic condition. The drug concentrations were measured over 6 timepoints collected between 0 and 12 hours of incubation by liquid-chromatography-coupled mass spectrometry (LC–MS); set-up: dose 5 uM, timepoint 0, 1.5, 3, 6, 9, 12 hours; details: 5 µM
[6] = The drug is tested on Bacteroides vulgatus strain: DSM1447 for biotransformation under anaerobic condition. The drug concentrations were measured over 6 timepoints collected between 0 and 12 hours of incubation by liquid-chromatography-coupled mass spectrometry (LC–MS); set-up: dose 5 uM, timepoint 0, 1.5, 3, 6, 9, 12 hours; details: phocaeicola vulgatus, 5 µM
[7] = The drug is tested on Blautia hansenii strain: DSM20583 for biotransformation under anaerobic condition. The drug concentrations were measured over 6 timepoints collected between 0 and 12 hours of incubation by liquid-chromatography-coupled mass spectrometry (LC–MS); set-up: dose 5 uM, timepoint 0, 1.5, 3, 6, 9, 12 hours; details: 5 µM
[8] = The drug is tested on Clostridium scindens strain: DSM5676 for biotransformation under anaerobic condition. The drug concentrations were measured over 6 timepoints collected between 0 and 12 hours of incubation by liquid-chromatography-coupled mass spectrometry (LC–MS); set-up: dose 5 uM, timepoint 0, 1.5, 3, 6, 9, 12 hours; details: 5 µM
[9] = The drug is tested on Dorea formicigenerans strain: DSM3992 for biotransformation under anaerobic condition. The drug concentrations were measured over 6 timepoints collected between 0 and 12 hours of incubation by liquid-chromatography-coupled mass spectrometry (LC–MS); set-up: dose 5 uM, timepoint 0, 1.5, 3, 6, 9, 12 hours; details: 5 µM
[10] = The drug is tested on Eubacterium rectale strain: DSM17629 for biotransformation under anaerobic condition. The drug concentrations were measured over 6 timepoints collected between 0 and 12 hours of incubation by liquid-chromatography-coupled mass spectrometry (LC–MS); set-up: dose 5 uM, timepoint 0, 1.5, 3, 6, 9, 12 hours; details: agathobacter rectalis, 5 µM
[11] = The drug is tested on Lactobacillus fermentum strain: DSM20052 for biotransformation under anaerobic condition. The drug concentrations were measured over 6 timepoints collected between 0 and 12 hours of incubation by liquid-chromatography-coupled mass spectrometry (LC–MS); set-up: dose 5 uM, timepoint 0, 1.5, 3, 6, 9, 12 hours; details: limosilactobacillus fermentum, 5 µM
[12] = The drug is tested on Lactobacillus gasseri strain: DSM20243 for biotransformation under anaerobic condition. The drug concentrations were measured over 6 timepoints collected between 0 and 12 hours of incubation by liquid-chromatography-coupled mass spectrometry (LC–MS); set-up: dose 5 uM, timepoint 0, 1.5, 3, 6, 9, 12 hours; details: 5 µM
[13] = The drug is tested on Lactobacillus paracasei strain: ATCC27092 for biotransformation under anaerobic condition. The drug concentrations were measured over 6 timepoints collected between 0 and 12 hours of incubation by liquid-chromatography-coupled mass spectrometry (LC–MS); set-up: dose 5 uM, timepoint 0, 1.5, 3, 6, 9, 12 hours; details: lacticaseibacillus paracasei, 5 µM
[14] = The drug is tested on Streptococcus sanguinis strain: DSM20567 for biotransformation under anaerobic condition. The drug concentrations were measured over 6 timepoints collected between 0 and 12 hours of incubation by liquid-chromatography-coupled mass spectrometry (LC–MS); set-up: dose 5 uM, timepoint 0, 1.5, 3, 6, 9, 12 hours; details: 5 µM
[15] = (§2) The drug is tested on Actinomyces graevenitzii strain: DSM15540 for biotransformation under microaerobic condition. The drug concentrations were measured over 6 timepoints collected between 0 and 12 hours of incubation by liquid-chromatography-coupled mass spectrometry (LC–MS); set-up: dose 5 uM, timepoint 0, 1.5, 3, 6, 9, 12 hours; details: 5 µM
[16] = The drug is tested on Gemella haemolysans strain: DSM107751 for biotransformation under microaerobic condition. The drug concentrations were measured over 6 timepoints collected between 0 and 12 hours of incubation by liquid-chromatography-coupled mass spectrometry (LC–MS); set-up: dose 5 uM, timepoint 0, 1.5, 3, 6, 9, 12 hours; details: 5 µM
[17] = The drug is tested on Lactobacillus paracasei strain: ATCC27092 for biotransformation under microaerobic condition. The drug concentrations were measured over 6 timepoints collected between 0 and 12 hours of incubation by liquid-chromatography-coupled mass spectrometry (LC–MS); set-up: dose 5 uM, timepoint 0, 1.5, 3, 6, 9, 12 hours; details: lacticaseibacillus paracasei, 5 µM
[18] = as §1, with “the gut metagenome community of A-02 with ENA study accession number: PRJEB31790” for “Bifidobacterium longum strain: DSM20088”, “7” for “6”; set-up: dose 5 uM, timepoint 0, 0.75, 1.5, 3, 6, 9, 12 hours; details: 5 µM
[19] = as §1, with “the gut metagenome community of A-06 with ENA study accession number: PRJEB31790” for “Bifidobacterium longum strain: DSM20088”, “7” for “6”; set-up: dose 5 uM, timepoint 0, 0.75, 1.5, 3, 6, 9, 12 hours; details: 5 µM
[20] = as §1, with “the gut metagenome community of A-08 with ENA study accession number: PRJEB31790” for “Bifidobacterium longum strain: DSM20088”, “7” for “6”; set-up: dose 5 uM, timepoint 0, 0.75, 1.5, 3, 6, 9, 12 hours; details: 5 µM
[21] = as §1, with “the gut metagenome community of P-02 with ENA study accession number: PRJEB31790” for “Bifidobacterium longum strain: DSM20088”, “7” for “6”; set-up: dose 5 uM, timepoint 0, 0.75, 1.5, 3, 6, 9, 12 hours; details: 5 µM
[22] = as §1, with “the gut metagenome community of P-03 with ENA study accession number: PRJEB31790” for “Bifidobacterium longum strain: DSM20088”, “7” for “6”; set-up: dose 5 uM, timepoint 0, 0.75, 1.5, 3, 6, 9, 12 hours; details: 5 µM
[23] = as §1, with “the gut metagenome community of T-04 with ENA study accession number: PRJEB31790” for “Bifidobacterium longum strain: DSM20088”, “7” for “6”; set-up: dose 5 uM, timepoint 0, 0.75, 1.5, 3, 6, 9, 12 hours; details: 5 µM
[24] = as §1, with “the gut metagenome community of T-05 with ENA study accession number: PRJEB31790” for “Bifidobacterium longum strain: DSM20088”, “7” for “6”; set-up: dose 5 uM, timepoint 0, 0.75, 1.5, 3, 6, 9, 12 hours; details: 5 µM
[25] = as §2, with “the gut metagenome community of A-02 with ENA study accession number: PRJEB31790” for “Actinomyces graevenitzii strain: DSM15540”, “7” for “6”; set-up: dose 5 uM, timepoint 0, 0.75, 1.5, 3, 6, 9, 12 hours; details: 5 µM
[26] = as §2, with “the gut metagenome community of A-03 with ENA study accession number: PRJEB31790” for “Actinomyces graevenitzii strain: DSM15540”, “7” for “6”; set-up: dose 5 uM, timepoint 0, 0.75, 1.5, 3, 6, 9, 12 hours; details: 5 µM
[27] = as §2, with “the gut metagenome community of A-09 with ENA study accession number: PRJEB31790” for “Actinomyces graevenitzii strain: DSM15540”, “7” for “6”; set-up: dose 5 uM, timepoint 0, 0.75, 1.5, 3, 6, 9, 12 hours; details: 5 µM
[28] = as §2, with “the gut metagenome community of P-02 with ENA study accession number: PRJEB31790” for “Actinomyces graevenitzii strain: DSM15540”, “7” for “6”; set-up: dose 5 uM, timepoint 0, 0.75, 1.5, 3, 6, 9, 12 hours; details: 5 µM
[29] = as §2, with “the gut metagenome community of T-04 with ENA study accession number: PRJEB31790” for “Actinomyces graevenitzii strain: DSM15540”, “7” for “6”; set-up: dose 5 uM, timepoint 0, 0.75, 1.5, 3, 6, 9, 12 hours; details: 5 µM
[30] = as §2, with “the gut metagenome community of T-05 with ENA study accession number: PRJEB31790” for “Actinomyces graevenitzii strain: DSM15540”, “7” for “6”; set-up: dose 5 uM, timepoint 0, 0.75, 1.5, 3, 6, 9, 12 hours; details: 5 µM

| Bacterial Biotransformation [1] | Bacterial Biotransformation [2] | Bacterial Biotransformation [3] | Bacterial Biotransformation [4] | Bacterial Biotransformation [5] | Bacterial Biotransformation [6] | Bacterial Biotransformation [7] | Bacterial Biotransformation [8] | Bacterial Biotransformation [9] | Bacterial Biotransformation [10] | Bacterial Biotransformation [11] | Bacterial Biotransformation [12] | Bacterial Biotransformation [13] | Bacterial Biotransformation [14] | Bacterial Biotransformation [15] | Bacterial Biotransformation [17] | Bacterial Biotransformation [18] | Bacterial Biotransformation [19] | Bacterial Biotransformation [20] | Structure (SMILES) | Bacterial Biotransformation [16] | further results |
| --- | --- | --- | --- | --- | --- | --- | --- | --- | --- | --- | --- | --- | --- | --- | --- | --- | --- | --- | --- | --- | --- |
| Compound NOT metabolized | Compound NOT metabolized | Compound NOT metabolized | Compound NOT metabolized | Compound NOT metabolized | Compound NOT metabolized | Compound NOT metabolized | Compound metabolized | Compound NOT metabolized | Compound NOT metabolized | Compound NOT metabolized | Compound NOT metabolized | Compound NOT metabolized | Compound NOT metabolized | Compound NOT metabolized | Compound NOT metabolized | Compound metabolized | Compound metabolized | Compound metabolized | C[C@H]1C[C@@H]2[C@H]([C@@H](O)C[C@@]3(C)[C@H]2CC[C@]3(O)C(=O)CO)[C@@]2(C)C=CC(=O)C=C12 [METHYLPREDNISOLONE] | Compound NOT metabolized | Bacterial Biotransformation [21]: Compound metabolized; Bacterial Biotransformation [22]: Compound metabolized; Bacterial Biotransformation [23]: Compound NOT metabolized; Bacterial Biotransformation [24]: Compound NOT metabolized; Bacterial Biotransformation [25]: Compound metabolized; Bacterial Biotransformation [26]: Compound metabolized; Bacterial Biotransformation [27]: Compound metabolized; Bacterial Biotransformation [28]: Compound metabolized; Bacterial Biotransformation [29]: Compound NOT metabolized; Bacterial Biotransformation [30]: Compound metabolized |
| Compound NOT metabolized | Compound NOT metabolized | Compound NOT metabolized | Compound NOT metabolized | Compound NOT metabolized | Compound NOT metabolized | Compound NOT metabolized | Compound NOT metabolized | Compound NOT metabolized | Compound NOT metabolized | Compound NOT metabolized | Compound NOT metabolized | Compound NOT metabolized | Compound NOT metabolized | Compound NOT metabolized | Compound NOT metabolized | Compound NOT metabolized | Compound metabolized | Compound metabolized | CCCC1O[C@@H]2C[C@H]3[C@@H]4CCC5=CC(=O)C=C[C@]5(C)[C@H]4[C@@H](O)C[C@]3(C)[C@]2(C(=O)CO)O1 (stereo not given in full) [BUDESONIDE] | Compound NOT metabolized | Bacterial Biotransformation [21]: Compound metabolized; Bacterial Biotransformation [22]: Compound metabolized; Bacterial Biotransformation [23]: Compound NOT metabolized; Bacterial Biotransformation [24]: Compound NOT metabolized; Bacterial Biotransformation [25]: Compound metabolized; Bacterial Biotransformation [26]: Compound metabolized; Bacterial Biotransformation [27]: Compound metabolized; Bacterial Biotransformation [28]: Compound NOT metabolized; Bacterial Biotransformation [29]: Compound metabolized; Bacterial Biotransformation [30]: Compound NOT metabolized |
| Compound NOT metabolized | Compound NOT metabolized | Compound NOT metabolized | Compound NOT metabolized | Compound NOT metabolized | Compound NOT metabolized | Compound NOT metabolized | Compound metabolized | Compound NOT metabolized | Compound NOT metabolized | Compound NOT metabolized | Compound NOT metabolized | Compound NOT metabolized | Compound NOT metabolized | Compound NOT metabolized | Compound NOT metabolized | Compound metabolized | Compound NOT metabolized | Compound NOT metabolized | CCC(C)(C)C(=O)O[C@H]1C[C@@H](C)C=C2C=C[C@H](C)[C@H](CC[C@@H]3C[C@@H](O)CC(=O)O3)[C@H]21 [SIMVASTATIN] | Compound NOT metabolized | Bacterial Biotransformation [21]: Compound NOT metabolized; Bacterial Biotransformation [22]: Compound NOT metabolized; Bacterial Biotransformation [23]: Compound NOT metabolized; Bacterial Biotransformation [24]: Compound NOT metabolized; Bacterial Biotransformation [25]: Compound metabolized; Bacterial Biotransformation [26]: Compound NOT metabolized; Bacterial Biotransformation [27]: Compound NOT metabolized; Bacterial Biotransformation [28]: Compound NOT metabolized; Bacterial Biotransformation [29]: Compound NOT metabolized; Bacterial Biotransformation [30]: Compound NOT metabolized |
